Reference: patent US20130108628A1, “Method for treating cancer pain and/or rescuing analgesic effect of morphine treatment of cancer pain” (priority 2011, published 2013)
“Also recorded” adds a separate entry of the source. Peptide text beside a SMILES is read from it.

How the values were obtained:
Type in all cases: in vivo, rat
[1] = tested on: EphB1; assay: Western blot of EphB1 and pEphB1 in spinal cord of naive rats; settings: for Activation (phosphorylation) of EphB1 / Expression of EphB1 protein: exogenous MMP, no EphB2-Fc
Method: (§1) Protein precipitation procedures in conjunction with Western blots were employed to identify temporal expression of EphB1, ephrinB2 protein and their phosphorylation. Protocols were similar to those described previously (Liu W T, et al., FASEB J 2009; 23:90-8; Liu W T, et al., J Neurosci 2010; 30:7613-23). EphB1 and ephrinB2 were immunoprecipitated from 2 mg total protein/int tissue lysate using an anti-EphB1 antibody (2 μg; Santa Cruz Technology, SCT) complex with protine G-agarose (Invitrogen) and wheat germ agglutinin (WGA) linked to agarose (Sigma), respectively. EphrinB2 and its phosphorylation were detected using anti-ephrinB2 (C20, SCT) and anti-phosphotyrosine antibody PY99 (SCT), respectively (Georgakopoulos A, et al., EMBO J 2006; 25:1242-52). EphB1 and its phosphorylation were detected using anti-EphB1 antibody (Q20, SCT) and phosphotyrosine antibody 4G 10 (Upstate Biotechnology), respectively (Compagni A, et al., Dev Cell 2003; 5:217-30). NR2A immunoprecipitation was performed using anti-NR2A antibody followed by adsorption to protein G-agarose. Whole cell protein extracts lysates were used to identify temporal expression of the phosphorylated protein levels of NR1(pNR1), NR2B(pNR2B), Src(pSrc), ERK(pERK), CaMKII(pCaMKII), CREB(pCREB) and GAPDH. The primary antibodies were used include pNR1(Ser897), 1:800 (Millipore); pNR2B(Tyr1472), 1:300 (Chemicon); pSrc(Tyr418), 1:800 (Abeam, Cambridge, UK); pERK1/2(Thr202/Tyr204), 1:500; pCaMKII(Thr286), 1:1000 (Cell Signaling Technology); GAPDH, 1:1000 (Sigma); GFAP and pCREB (Ser133)(SCT). The filters were then developed using ECL reagents (Perkinelmer) with secondary antibodies (Chemicon). Data was analyzed with a Molecular Imager (Gel Doc™ XR, 170-8170) and the associated software Quantity One-4.6.5 (Bio-Rad Laboratories).

[2] = tested on: EphB1; assay: Western blot of EphB1 and its phosphorylation in spinal cord of TCI rats; settings: for Increased levels of EphB1: exogenous MMP, no EphB2-Fc
Method: as §1

[3] = Morphine analgesia on thermal hyperalgesia in TCI rats
Method: Tumor cells were extracted from ascitic fluid of rats that received Walker-256 rat mammary gland carcinoma cells. Tumor cells implantation (TCI) was mimicked by injecting the cells (1×10^5 cells/μl, 5 μl) into the intra-medullary space of the right tibia to induce bone cancer in rats (Medhurst S J, et al., Pain 2002; 96:129-40).
Thermal hyperalgesia was determined by the significant shortened latency of foot withdrawal in response to heat stimulation. Mechanical allodynia was indicated by a significant decrease in the threshold of paw withdrawal to mechanical indentation of the plantar surface of each hindpaw. The protocols were similar to those described previously (Song X J, et al., J Neurophysiol 2006; 95:479-92; Wang Z B, et al., Pain 2005; 114:266-77).

[4] = tested on: EphB1; assay: Western blot of EphB1 after acute or chronic morphine treatment
Method: as §1

Molecule: MMP-9: exogenous matrix metalloproteinase-9 administered to rats
- Activation (phosphorylation) of EphB1 [1]: an increase rather than a decline
- Expression of EphB1 protein [1]: without altering
- Increased levels of EphB1 [2]: did not significantly alter

Molecule: CN1CC[C@]23c4c5ccc(O)c4O[C@H]2[C@@H](O)C=C[C@H]3[C@H]1C5 [morphine]
- Thermal hyperalgesia ([3]; morphine 10 mg/kg s.c. twice a day): significantly suppressed
- Time after which the analgesic effect decreased and disappeared (tolerance) ([3]; repeated morphine 10 mg/kg s.c. twice a day): 6 to 7 days
- Expression of EphB1 and its phosphorylation ([4]; acute morphine treatment (100 mg/kg, then 10 mg/kg at 24 h)): significantly increased
- Expression of EphB1 and its phosphorylation ([4]; acute morphine treatment (100 mg/kg, then 10 mg/kg at 24 h), listed as Mor): upregulates
- Expression of EphB1 and its phosphorylation ([4]; chronic morphine treatment (10 mg/kg)): significantly increased

Molecule: CC(C)C[C@@H](NC(=O)[C@@H]1CCCN1C(=O)CNC(=O)c1ccc(N)cc1)C(=O)N[C@H](C)C(=O)NO [FN439] (HELM PEPTIDE1{[Nc1ccc(C(=O)[*:2])cc1].G.P.[dL].[dA].[ON[*:1]]}$$$$V2.0)
- EphB2-Fc-induced downregulation of EphB1 ([1]; MMP2i 10 μg or FN439 100 μg): reversed; also recorded: completely prevented
- EphB1 level, without EphB2-Fc treatment ([1]; blocking MMP-2 or MMP-9): keeping EphB1 at its physiological levels
- EphB2-Fc-induced downregulation of EphB1 ([2]; MMP2i 10 μg or FN439 100 μg): reversed; also recorded: completely prevented
- TCI-induced upregulation of EphB1, without EphB2-Fc treatment ([2]; blocking MMP-2 or MMP-9): inhibited

B1: MMP-2: exogenous matrix metalloproteinase-2 administered to rats (protein, UniProt P33436 110-662, looked up)
72 kDa type IV collagenase: YNFFPRKPKWDKNQITYRIIGYTPDLDPETVDDAFARALKVWSDVTPLRFSRIHDGEADIMINFGRWEHGDGYPFDGKDGLLAHAFAPGTGVGGDSHFDDDELWTLGEGQVVRVKYGNADGEYCKFPFLFNGREYSSCTDTGRSDGFLWCSTTYNFEKDGKYGFCPHEALFTMGGNGDGQPCKFPFRFQGTSYNSCTTEGRTDGYRWCGTTEDYDRDKKYGFCPETAMSTVGGNSEGAPCVFPFTFLGNKYESCTSAGRSDGKVWCATTTNYDDDRKWGFCPDQGYSLFLVAAHEFGHAMGLEHSQDPGALMAPIYTYTKNFRLSNDDIKGIQELYGPSPDADTDTGTGPTPTLGPVTPEICKQDIVFDGIAQIRGEIFFFKDRFIWRTVTPRDKPTGPLLVATFWPELPEKIDAVYEAPQEEKAVFFAGNEYWVYSASTLERGYPKPLTSLGLPPDVQQVDAAFNWSKNKKTYIFSGDKFWRYNEVKKKMDPGFPKLIADSWNAIPDNLDAVVDLQGGGHSYFFKGAYYLKLENQSLKSVKFGSIKSDWLGC
- Activation (phosphorylation) of EphB1 [1]: an increase rather than a decline
- Expression of EphB1 protein [1]: without altering
- Increased levels of EphB1 [2]: did not significantly alter
